Measured values: patent publication US8216822B2, “Bacterial host cell for the direct expression of peptides” (Unigene Laboratories, Inc., priority 2004, dated 2012)

B1: α2-macroglobulin: protease inhibitor (protein, UniProt P01023 24-1474, looked up)
Alpha-2-macroglobulin: SVSGKPQYMVLVPSLLHTETTEKGCVLLSYLNETVTVSASLESVRGNRSLFTDLEAENDVLHCVAFAVPKSSSNEEVMFLTVQVKGPTQEFKKRTTVMVKNEDSLVFVQTDKSIYKPGQTVKFRVVSMDENFHPLNELIPLVYIQDPKGNRIAQWQSFQLEGGLKQFSFPLSSEPFQGSYKVVVQKKSGGRTEHPFTVEEFVLPKFEVQVTVPKIITILEEEMNVSVCGLYTYGKPVPGHVTVSICRKYSDASDCHGEDSQAFCEKFSGQLNSHGCFYQQVKTKVFQLKRKEYEMKLHTEAQIQEEGTVVELTGRQSSEITRTITKLSFVKVDSHFRQGIPFFGQVRLVDGKGVPIPNKVIFIRGNEANYYSNATTDEHGLVQFSINTTNVMGTSLTVRVNYKDRSPCYGYQWVSEEHEEAHHTAYLVFSPSKSFVHLEPMSHELPCGHTQTVQAHYILNGGTLLGLKKLSFYYLIMAKGGIVRTGTHGLLVKQEDMKGHFSISIPVKSDIAPVARLLIYAVLPTGDVIGDSAKYDVENCLANKVDLSFSPSQSLPASHAHLRVTAAPQSVCALRAVDQSVLLMKPDAELSASSVYNLLPEKDLTGFPGPLNDQDNEDCINRHNVYINGITYTPVSSTNEKDMYSFLEDMGLKAFTNSKIRKPKMCPQLQQYEMHGPEGLRVGFYESDVMGRGHARLVHVEEPHTETVRKYFPETWIWDLVVVNSAGVAEVGVTVPDTITEWKAGAFCLSEDAGLGISSTASLRAFQPFFVELTMPYSVIRGEAFTLKATVLNYLPKCIRVSVQLEASPAFLAVPVEKEQAPHCICANGRQTVSWAVTPKSLGNVNFTVSAEALESQELCGTEVPSVPEHGRKDTVIKPLLVEPEGLEKETTFNSLLCPSGGEVSEELSLKLPPNVVEESARASVSVLGDILGSAMQNTQNLLQMPYGCGEQNMVLFAPNIYVLDYLNETQQLTPEIKSKAIGYLNTGYQRQLNYKHYDGSYSTFGERYGRNQGNTWLTAFVLKTFAQARAYIFIDEAHITQALIWLSQRQKDNGCFRSSGSLLNNAIKGGVEDEVTLSAYITIALLEIPLTVTHPVVRNALFCLESAWKTAQEGDHGSHVYTKALLAYAFALAGNQDKRKEVLKSLNEEAVKKDNSVHWERPQKPKAPVGHFYEPQAPSAEVEMTSYVLLAYLTAQPAPTSEDLTSATNIVKWITKQQNAQGGFSSTQDTVVALHALSKYGAATFTRTGKAAQVTIQSSGTFSSKFQVDNNNRLLLQQVSLPELPGEYSMKVTGEGCVYLQTSLKYNILPEKEEFPFALGVQTLPQTCDEPKAHTSFQISLSVSYTGSRSASNMAIVDVKMVSGFIPLKPTVKMLERSNHVSRTEVSSNHVLIYLDKVSNQTLSLFFTVLQDVPVRDLKPAIVKVYDYYETDEFAIAEYNAPCSKDLGNA

How the values were obtained:
[1] = test system: proteolytic degradation of sCTgly in conditioned fermentation medium; assay: Protease inhibitors tested for ability to reduce proteolytic degradation of sCTgly in conditioned medium; assay type: biochemical, E. coli; conditions: 30° C.
Description: Conditioned medium samples from both UGL165 (E. coli BLR transformed with pSCT 029) and UGL703 (E. coli BLR transformed with pSCT 038) Direct Expression fermentations were tested for loss of sCTgly following removal of cells and incubation of the medium spiked with sCTgly at 30° C. The concentration of sCTgly in conditioned fermentation medium was measured by CEX HPLC.

[2] = molecular target: T1, E. coli Protease III (zinc metalloprotease) in fermentation medium (Escherichia coli, UniProt P05458); assay: Divalent cation specificity of sCTgly degradation in fermentation medium (EDTA, MgCl2, ZnCl2); assay type: biochemical; conditions: 15 mM added to EDTA (50 mM) pre-treated medium, 30° C., 4 hrs
T1 construct: E. coli Protease III is a periplasmic/extracellular zinc metalloprotease; endogenous in cells; host or cells: E. coli BLR (UGL703 / UGL165), cell-free conditioned fermentation medium
T1 sequence (P05458 24-962): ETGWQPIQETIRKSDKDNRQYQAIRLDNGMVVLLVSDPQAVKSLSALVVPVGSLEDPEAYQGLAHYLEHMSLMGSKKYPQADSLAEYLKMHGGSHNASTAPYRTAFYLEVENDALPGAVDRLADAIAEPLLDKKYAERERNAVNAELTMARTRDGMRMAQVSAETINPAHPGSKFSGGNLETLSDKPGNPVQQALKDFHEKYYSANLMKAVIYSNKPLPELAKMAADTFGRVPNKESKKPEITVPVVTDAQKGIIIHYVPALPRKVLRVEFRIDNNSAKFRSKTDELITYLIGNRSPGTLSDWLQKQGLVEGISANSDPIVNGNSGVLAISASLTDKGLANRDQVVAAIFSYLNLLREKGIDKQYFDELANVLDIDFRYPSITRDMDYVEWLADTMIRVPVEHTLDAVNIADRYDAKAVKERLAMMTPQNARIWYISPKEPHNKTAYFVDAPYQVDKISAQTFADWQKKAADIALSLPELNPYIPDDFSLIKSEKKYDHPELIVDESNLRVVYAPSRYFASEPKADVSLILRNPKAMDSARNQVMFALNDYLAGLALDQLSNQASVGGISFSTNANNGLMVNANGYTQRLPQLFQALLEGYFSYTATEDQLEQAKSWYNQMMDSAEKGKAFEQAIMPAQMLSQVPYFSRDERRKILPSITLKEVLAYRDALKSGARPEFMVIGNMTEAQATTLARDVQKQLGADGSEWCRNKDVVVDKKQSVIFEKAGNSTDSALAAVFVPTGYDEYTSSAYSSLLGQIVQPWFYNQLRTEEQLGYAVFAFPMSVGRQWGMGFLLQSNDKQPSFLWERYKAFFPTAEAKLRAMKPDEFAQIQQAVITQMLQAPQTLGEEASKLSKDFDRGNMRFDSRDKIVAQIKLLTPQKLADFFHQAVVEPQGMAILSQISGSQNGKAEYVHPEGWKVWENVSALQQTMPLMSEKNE

Row | Molecule | ability to reduce or eliminate proteolytic degradation of sCTgly [1] | reactivation of proteolytic activity by divalent cation [2]
1 | CC(C)C[C@H](NC(=O)[C@@H](O)[C@H](N)Cc1ccccc1)C(=O)O [Bestatin] | Only EDTA was able to reduce the proteolytic degradation of sCTgly | 
2 | [Cl-].[Cl-].[Mg+2] [MgCl2] |  | magnesium was not
3 | [Cl-].[Cl-].[Zn+2] [ZnCl2] |  | zinc was effective
4 | B1 | Only EDTA was able to reduce the proteolytic degradation of sCTgly | 
